How the values were obtained:
[1] = system: human airway epithelial cells (HAECs); assay: Agilent miRNA chips, miRNA expression at four stages of differentiation of HAECs; conditions: for Modulation (ratio of the level of intensity of expression in log2 in two stages of differentiation) measured with the Agilent chips, D7 − D0 / Modulation (ratio of the level of intensity of expression in log2 in two stages of differentiation) measured with the Agilent chips, FC − D7 / Modulation (ratio of the level of intensity of expression in log2 in two stages of differentiation) measured with the Agilent chips, WD − D0 / Modulation (ratio of the level of intensity of expression in log2 in two stages of differentiation) measured with the Agilent chips, WD − FC / Level of intensity of expression in log2 measured with the Agilent chips, D0 / Level of intensity of expression in log2 measured with the Agilent chips, D7 / Level of intensity of expression in log2 measured with the Agilent chips, FC / Level of intensity of expression in log2 measured with the Agilent chips, WD: Table VI; for Modulation (ratio of the level of intensity of expression in log2 at two stages of differentiation), FC − D7 / Modulation (ratio of the level of intensity of expression in log2 at two stages of differentiation), WD − FC: Agilent miRNA chips, Table V; for Level of intensity of expression in log2 measured with the Agilent chips, D0: stage D0; for Level of intensity of expression in log2 measured with the Agilent chips, D7: stage D7; for Level of intensity of expression in log2 measured with the Agilent chips, FC: stage FC; for Level of intensity of expression in log2 measured with the Agilent chips, WD: stage WD
Outline: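 Expression read from hybridization signals on Human miRNA Microarray v2 arrays spanning all miRBase v.12.0 human miRNAs plus 89 viral ones. Samples are RNA from the same patients profiled by sequencing, labelled with the standard kit.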

[2] = system: human airway epithelial cells (HAECs); assay: High-throughput sequencing (HTS) of miRNAs at four stages of differentiation of HAECs; conditions: for Modulation (ratio of the level of intensity of expression in log2 in two stages of differentiation) measured by high-throughput sequencing, D7 − D0 / Modulation (ratio of the level of intensity of expression in log2 in two stages of differentiation) measured by high-throughput sequencing, FC − D7 / Modulation (ratio of the level of intensity of expression in log2 in two stages of differentiation) measured by high-throughput sequencing, WD − D0 / Modulation (ratio of the level of intensity of expression in log2 in two stages of differentiation) measured by high-throughput sequencing, WD − FC / Level of intensity of expression in log2 measured by high-throughput sequencing, D0 / Level of intensity of expression in log2 measured by high-throughput sequencing, D7 / Level of intensity of expression in log2 measured by high-throughput sequencing, FC / Level of intensity of expression in log2 measured by high-throughput sequencing, WD: Table VI; for Level of intensity of expression in log2 At the differentiated stage (WD) measured in HTS: healthy human airway epithelial tissue; for Level of intensity of expression in log2 measured by high-throughput sequencing, D0: stage D0; for Level of intensity of expression in log2 measured by high-throughput sequencing, D7: stage D7; for Level of intensity of expression in log2 measured by high-throughput sequencing, FC: stage FC; for Level of intensity of expression in log2 At the differentiated stage (WD) measured in HTS / Level of intensity of expression in log2 measured by high-throughput sequencing, WD: stage WD; for Modulation (ratio of the level of intensity of expression in log2 in two stages of differentiation), D7 − D0 / Modulation (ratio of the level of intensity of expression in log2 in two stages of differentiation), FC − D7 / Modulation (ratio of the level of intensity of expression in log2 in two stages of differentiation), WD − FC / Abundance (%), D0 / Abundance (%), D7 / Abundance (%), FC / Abundance (%), WD: HTS; for Abundance (%), D0: ALI-D0; for Abundance (%), D7: ALI-D7; for Abundance (%), FC: ALI-FC; for Abundance (%), WD: ALI-WD
Outline: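 Total RNA including small RNAs was taken from air-liquid interface cultures at ALI-D0, ALI-D7, ALI-FC (first cilia, ~14 days) and ALI-WD (~21 days). SOLiD small-RNA libraries were sequenced, and 5p/3p reads were normalized to 10^6 sequences and expressed as percentage abundance.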

[3] = system: basal cells and pyramidal cells of the airway epithelium; assay: miRNA expression in sorted basal cells versus pyramidal cells (ciliated + secretory), HTS and Agilent chips; design: species or system human; conditions: for Modulation of expression of the miRNAs in pyramidal cells (323(−)) relative to basal cells 323(+): HTS and Agilent chips; for Intensity of the level of expression in log2 in pyramidal cells (323(−)): pyramidal cells (ciliated + secretory)
Outline: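 miRNA repertoires measured by high-throughput sequencing or Agilent arrays on total RNA from sorted airway epithelial populations of 3 donors. Sorting used CD151-PE and anti-tissue factor-FITC: double-positive basal versus double-negative ciliated/secretory cells, with DAPI-stained and aggregated cells excluded.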

Row | Substance | Modulation (ratio of the level of intensity of expression in log2 in two stages of differentiation) measured with the Agilent chips, D7 − D0 [1] [log2] | Modulation (ratio of the level of intensity of expression in log2 in two stages of differentiation) measured with the Agilent chips, FC − D7 [1] [log2] | Modulation (ratio of the level of intensity of expression in log2 in two stages of differentiation) measured with the Agilent chips, WD − D0 [1] [log2] | Modulation (ratio of the level of intensity of expression in log2 in two stages of differentiation) measured with the Agilent chips, WD − FC [1] [log2] | Level of intensity of expression in log2 measured with the Agilent chips, D0 [1] [log2] | Level of intensity of expression in log2 measured with the Agilent chips, D7 [1] [log2] | Level of intensity of expression in log2 measured with the Agilent chips, FC [1] [log2] | Level of intensity of expression in log2 measured with the Agilent chips, WD [1] [log2] | Modulation (ratio of the level of intensity of expression in log2 in two stages of differentiation) measured by high-throughput sequencing, D7 − D0 [2] [log2] | Modulation (ratio of the level of intensity of expression in log2 in two stages of differentiation) measured by high-throughput sequencing, FC − D7 [2] [log2] | Modulation (ratio of the level of intensity of expression in log2 in two stages of differentiation) measured by high-throughput sequencing, WD − D0 [2] [log2] | Modulation (ratio of the level of intensity of expression in log2 in two stages of differentiation) measured by high-throughput sequencing, WD − FC [2] [log2] | Level of intensity of expression in log2 At the differentiated stage (WD) measured in HTS [2] [log2] | Level of intensity of expression in log2 measured by high-throughput sequencing, D0 [2] [log2] | Level of intensity of expression in log2 measured by high-throughput sequencing, D7 [2] [log2] | Level of intensity of expression in log2 measured by high-throughput sequencing, FC [2] [log2] | Level of intensity of expression in log2 measured by high-throughput sequencing, WD [2] [log2] | Modulation of expression of the miRNAs in pyramidal cells (323(−)) relative to basal cells 323(+) [3] | Intensity of the level of expression in log2 in basal cells (323(+)) [3] [log2] | Intensity of the level of expression in log2 in pyramidal cells (323(−)) [3] [log2] | further results
1 | hsa-miR-181a: human miRNA, SEQ ID No. 12 (AACAUUCAACGCUGUCGGUGAGU; expressed or natural sequence; listed as Homo sapiens) | 1.41 | −0.84 | 0.20 | −0.37 | 7.05 | 8.47 | 7.62 | 7.25 | 0.00 | 0.00 | 0.00 | 0.00 | 0.01 | 0.01 | 0.01 | 0.01 | 0.01 | −2.29 | 6.88 | 4.59 | Modulation (ratio of the level of intensity of expression in log2 at two stages of differentiation), FC − D7 [1]: −0.84 log2; Modulation (ratio of the level of intensity of expression in log2 at two stages of differentiation), WD − FC [1]: −0.37 log2
2 | hsa-miR-191: human miRNA, SEQ ID No. 13 (CAACGGAAUCCCAAAAGCAGCUG; expressed or natural sequence; listed as Homo sapiens) | 2.32 | 0.29 | 2.31 | −0.30 | 0.64 | 2.97 | 3.25 | 2.95 | 0.90 | 0.84 | 2.15 | 0.42 | 16.82 | 14.67 | 15.57 | 16.40 | 16.82 | 0.00 | 0.14 | 0.14 | Modulation (ratio of the level of intensity of expression in log2 in two stages of differentiation), D7 − D0 [2]: 0.90 log2; Modulation (ratio of the level of intensity of expression in log2 in two stages of differentiation), FC − D7 [2]: 0.84 log2; Modulation (ratio of the level of intensity of expression in log2 in two stages of differentiation), WD − FC [2]: 0.42 log2; Abundance (%), D0 [2]: 5.71%; Abundance (%), D7 [2]: 10.68%; Abundance (%), FC [2]: 18.46%; Abundance (%), WD [2]: 18.69%
3 | hsa-miR-193b: human miRNA, SEQ ID No. 14 (AACUGGCCCUCAAAGUCCCGCU; expressed or natural sequence; listed as Homo sapiens) | −0.67 | −1.19 | −1.93 | −0.07 | 8.62 | 7.95 | 6.76 | 6.69 | −1.17 | −0.90 | −1.60 | 0.48 | 11.67 | 13.26 | 12.09 | 11.19 | 11.67 | −3.57 | 3.90 | 0.33 | Modulation (ratio of the level of intensity of expression in log2 at two stages of differentiation), FC − D7 [1]: −1.19 log2; Modulation (ratio of the level of intensity of expression in log2 at two stages of differentiation), WD − FC [1]: −0.07 log2; Modulation (ratio of the level of intensity of expression in log2 in two stages of differentiation), D7 − D0 [2]: −1.17 log2; Modulation (ratio of the level of intensity of expression in log2 in two stages of differentiation), FC − D7 [2]: −0.90 log2; Modulation (ratio of the level of intensity of expression in log2 in two stages of differentiation), WD − FC [2]: 0.48 log2; Abundance (%), D0 [2]: 2.16%; Abundance (%), D7 [2]: 0.96%; Abundance (%), FC [2]: 0.50%; Abundance (%), WD [2]: 0.52%; cell type in which the miRNA is specifically expressed ([3]; sorted ciliated/pyramidal versus basal cells): more specific to the basal cells

From patent publication US9023821B2, “Use of MicroRNA for treating diseases associated with a dysfunction of the cilia in multiciliated epithelial cells” (Centre National de la Recherche Scientifique, priority 2009, dated 2015)
